Experimental data reported in patent publication US9751885B2, “Cyclopropanamine compound and use thereof” (Takeda Pharmaceutical Company Limited, priority 2012, dated 2017).
Counter-ions that a name gives are not always drawn.

Experiments:
[1] = target: human LSD1(172-833) (Homo sapiens (Human), UniProt O60341); assay: Measurement of LSD1 inhibitory activity (time-resolved fluorescence, biotin-histone H3 mono methylated K4 peptide); format: biochemical
Procedure: When the turbidity reached 500 Klett units, the culture temperature was changed to 16° C., IPTG (Isopropyl β-D-1-thiogalactopyranoside) having a final concentration of 0.5 mM was added to induce expression, and the cells were cultured further for 14 hr. The culture medium was centrifuged at 6,000 g for 15 min, and Escherichia coil pellets were recovered.
Using Branson ultrasonic disintegrator, the suspension was disrupted by ultrasonication for 3 min, and centrifuged at 33,000 g for 60 min, and the supernatant was recovered. […] It was concentrated to 10 mL with AmiconUltra (NWCO 30K) (Millipore Japan), and purified with HiLoad 26/60 Superdex 200 pg column (GE Healthcare) equilibrated with Buffer A to give hLSD1 purified product (8.4 mg). The protein concentration of hLSD1 was measured by BCA Protein Assay Kit (Thermo Fisher Scientific K.K.) using bovine serum albumin as the standard.
(5) Measurement of LSD1 Inhibitory Activity
After reaction at room temperature for 5 min, 1 mM 2-PCPA solution was added 5 μL to terminate the reaction. A detection solution ([…] potassium fluoride, 0.1% BSA) containing europium-labeled anti-histone H3 antibody (Wako Pure Chemical Industries, Ltd.) and Streptavidin-XL665 (Cisbio) was further added by 5 μL, and the mixture was left standing for 60 min.

[2] = target: MAO-A enzyme (Homo sapiens (Human), UniProt P21397); assay: Measurement of MAO-A inhibitory activity (MAO-Glo Assay); format: biochemical
[3] = target: MAO-B enzyme (Homo sapiens (Human), UniProt P27338); assay: Measurement of MAO-B inhibitory activity (MAO-Glo Assay); conditions: read-out: MAO-B IC50 value;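 also: luminescence read-out, compound preincubated 10 min with enzyme then reacted 60 min at room temperature, inhibition relative to enzyme reaction without compound, blank lacking enzyme and compound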
Chain of MAO-B enzyme (P27338 whole entry): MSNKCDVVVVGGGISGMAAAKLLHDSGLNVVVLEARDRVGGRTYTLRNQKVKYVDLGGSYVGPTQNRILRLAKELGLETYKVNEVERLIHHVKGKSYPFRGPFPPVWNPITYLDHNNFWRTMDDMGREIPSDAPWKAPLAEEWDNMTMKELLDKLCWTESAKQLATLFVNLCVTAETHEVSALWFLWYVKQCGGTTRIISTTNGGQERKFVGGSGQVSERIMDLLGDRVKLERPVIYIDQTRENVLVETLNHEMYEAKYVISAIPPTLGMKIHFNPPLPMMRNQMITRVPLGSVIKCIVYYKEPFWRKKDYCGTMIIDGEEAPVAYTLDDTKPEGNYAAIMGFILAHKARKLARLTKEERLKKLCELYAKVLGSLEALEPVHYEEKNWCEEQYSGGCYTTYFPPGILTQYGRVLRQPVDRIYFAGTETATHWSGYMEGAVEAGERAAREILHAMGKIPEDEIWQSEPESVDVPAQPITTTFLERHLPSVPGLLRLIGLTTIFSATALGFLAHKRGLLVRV

Chain of MAO-A enzyme (P21397 whole entry): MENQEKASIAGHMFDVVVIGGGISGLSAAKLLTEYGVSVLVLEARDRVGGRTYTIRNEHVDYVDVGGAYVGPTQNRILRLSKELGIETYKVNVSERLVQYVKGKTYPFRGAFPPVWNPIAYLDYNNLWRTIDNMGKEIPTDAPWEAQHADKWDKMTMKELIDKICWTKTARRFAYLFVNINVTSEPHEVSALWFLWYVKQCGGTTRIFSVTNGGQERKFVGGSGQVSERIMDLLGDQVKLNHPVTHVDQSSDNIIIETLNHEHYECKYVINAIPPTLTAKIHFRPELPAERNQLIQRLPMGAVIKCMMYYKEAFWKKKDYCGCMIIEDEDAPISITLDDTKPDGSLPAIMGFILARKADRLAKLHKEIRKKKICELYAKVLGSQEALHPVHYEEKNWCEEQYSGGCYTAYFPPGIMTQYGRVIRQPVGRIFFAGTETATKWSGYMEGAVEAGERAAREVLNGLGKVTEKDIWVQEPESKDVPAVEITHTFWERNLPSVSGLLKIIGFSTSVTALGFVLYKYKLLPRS

SMILES	IC50 [1] [µM]	IC50 [2] [µM]	IC50 [3] [µM]
O=C(NCc1ccncc1)c1ccc([C@@H]2C[C@H]2NCC2CC2)cc1 (relative stereo) [Example 17, 4-(trans-2-((cyclopropylmethyl)amino)cyclopropyl)-N-(pyridin-4-ylmethyl)benzamide bis(trifluoroacetate)]	< 0.1	> 10	> 10
O=C(NCc1cccnc1)c1ccc([C@@H]2C[C@H]2NCC2CC2)cc1 (relative stereo) [Example 18, 4-(trans-2-((cyclopropylmethyl)amino)cyclopropyl)-N-(pyridin-3-ylmethyl)benzamide bis(trifluoroacetate)]	< 0.1	> 10	> 10
O=C(NCCc1ccccn1)c1ccc([C@@H]2C[C@H]2NCC2CC2)cc1 (relative stereo) [Example 19, 4-(trans-2-((cyclopropylmethyl)amino)cyclopropyl)-N-(2-(pyridin-2-yl)ethyl)benzamide bis(trifluoroacetate)]	< 0.1	> 10	> 10
O=C(c1ccc([C@@H]2C[C@H]2NCC2CC2)cc1)N1Cc2cccnc2C1 (relative stereo) [Example 20, (4-(trans-2-((cyclopropylmethyl)amino)cyclopropyl)phenyl)(5,7-dihydro-6H-pyrrolo[3,4-b]pyridin-6-yl)methanone bis(trifluoroacetate)]	< 0.1	> 10	> 10
O=C(NCc1cccc(Oc2ccccc2)c1)c1ccc([C@@H]2C[C@H]2NCC2CC2)cc1 (relative stereo) [Example 21, 4-(trans-2-((cyclopropylmethyl)amino)cyclopropyl)-N-(3-phenoxybenzyl)benzamide trifluoroacetate]	< 0.1	1.8	> 10
N#CCN(Cc1ccccc1)C(=O)c1ccc([C@@H]2C[C@H]2NCC2CC2)cc1 (relative stereo) [Example 22, N-benzyl-N-(cyanomethyl)-4-(trans-2-((cyclopropylmethyl)amino)cyclopropyl)benzamide trifluoroacetate]	< 0.1	> 10	> 10
CN1CCN(c2ccc(NC(=O)c3ccc([C@@H]4C[C@H]4NCC4CC4)cc3)cc2)CC1 (relative stereo) [Example 23, 4-(trans-2-((cyclopropylmethyl)amino)cyclopropyl)-N-(4-(4-methylpiperazin-1-yl)phenyl)benzamide tris(trifluoroacetate)]	< 0.1	> 10	> 10
N#Cc1cccc(CNC(=O)c2ccc([C@@H]3C[C@H]3NCC3CC3)cc2)c1 (relative stereo) [Example 25, N-(3-cyanobenzyl)-4-(trans-2-((cyclopropylmethyl)amino)cyclopropyl)benzamide trifluoroacetate]	< 0.1	> 10	> 10
O=C(NCc1ncccc1C(F)(F)F)c1ccc([C@@H]2C[C@H]2NCC2CC2)cc1 (relative stereo) [Example 26, 4-(trans-2-((cyclopropylmethyl)amino)cyclopropyl)-N-((3-(trifluoromethyl)pyridin-2-yl)methyl)benzamide bis(trifluoroacetate)]	< 0.1	> 10	> 10
O=C(NCc1ccc(N2CCCC2=O)cc1)c1ccc([C@@H]2C[C@H]2NCC2CC2)cc1 (relative stereo) [Example 27, 4-(trans-2-((cyclopropylmethyl)amino)cyclopropyl)-N-(4-(2-oxopyrrolidin-1-yl)benzyl)benzamide trifluoroacetate]	< 0.1	> 10	> 10
O=C(NCc1ccc(N2CCOCC2)cc1)c1ccc([C@@H]2C[C@H]2NCC2CC2)cc1 (relative stereo) [Example 28, 4-(trans-2-((cyclopropylmethyl)amino)cyclopropyl)-N-(4-(morpholin-4-yl)benzyl)benzamide bis(trifluoroacetate)]	< 0.1	> 10	> 10
O=C(NCc1cccc(Oc2cnccn2)c1)c1ccc([C@@H]2C[C@H]2NCC2CC2)cc1 (relative stereo) [Example 29, 4-(trans-2-((cyclopropylmethyl)amino)cyclopropyl)-N-(3-(pyrazin-2-yloxy)benzyl)benzamide bis(trifluoroacetate)]	< 0.1	7.3	> 10
O=C(NCc1cccc2c1OCCO2)c1ccc([C@@H]2C[C@H]2NCC2CC2)cc1 (relative stereo) [Example 30, 4-(trans-2-((cyclopropylmethyl)amino)cyclopropyl)-N-(2,3-dihydro-1,4-benzodioxin-5-ylmethyl)benzamide trifluoroacetate]	< 0.1	> 10	> 10
CC(C)(C)c1ccc(CN[C@@H]2C[C@H]2c2ccc(C(=O)NCc3ccccc3)cc2)cc1 (relative stereo) [Example 31, N-benzyl-4-(trans-2-((4-tert-butylbenzyl)amino)cyclopropyl)benzamide trifluoroacetate]	< 0.1	4	> 10
COc1ccccc1CN[C@@H]1C[C@H]1c1ccc(C(=O)NCc2ccccc2)cc1 (relative stereo) [Example 32, N-benzyl-4-(trans-2-((2-methoxybenzyl)amino)cyclopropyl)benzamide trifluoroacetate]	< 0.1	> 10	> 10
Cc1ccccc1CN[C@@H]1C[C@H]1c1ccc(C(=O)NCc2ccccc2)cc1 (relative stereo) [Example 33, N-benzyl-4-(trans-2-((2-methylbenzyl)amino)cyclopropyl)benzamide trifluoroacetate]	< 0.1	> 10	> 10
Cc1ccc(CN[C@@H]2C[C@H]2c2ccc(C(=O)NCc3ccccc3)cc2)cc1 (relative stereo) [Example 34, N-benzyl-4-(trans-2-((4-methylbenzyl)amino)cyclopropyl)benzamide trifluoroacetate]	< 0.1	4.4	> 10
COc1ccc(CN[C@@H]2C[C@H]2c2ccc(C(=O)NCc3ccccc3)cc2)cc1 (relative stereo) [Example 35, N-benzyl-4-(trans-2-((4-methoxybenzyl)amino)cyclopropyl)benzamide trifluoroacetate]	< 0.1	3.1	> 10
N#Cc1ccc(CN[C@@H]2C[C@H]2c2ccc(C(=O)NCc3ccccc3)cc2)cc1 (relative stereo) [Example 36, N-benzyl-4-(trans-2-((4-cyanobenzyl)amino)cyclopropyl)benzamide trifluoroacetate]	< 0.1	4.3	> 10
COc1cccc(CN[C@@H]2C[C@H]2c2ccc(C(=O)NCc3ccccc3)cc2)c1 (relative stereo) [Example 37, N-benzyl-4-(trans-2-((3-methoxybenzyl)amino)cyclopropyl)benzamide trifluoroacetate]	< 0.1	4.5	> 10
O=C(NCc1ccccc1)c1ccc([C@@H]2C[C@H]2NCc2ccc(C(F)(F)F)cc2)cc1 (relative stereo) [Example 38, N-benzyl-4-(trans-2-((4-(trifluoromethyl)benzyl)amino)cyclopropyl)benzamide trifluoroacetate]	< 0.1	2.2	> 10
O=C(NCc1ccccc1)c1ccc([C@@H]2C[C@H]2NCc2ccccc2F)cc1 (relative stereo) [Example 39, N-benzyl-4-(trans-2-((2-fluorobenzyl)amino)cyclopropyl)benzamide trifluoroacetate]	< 0.1	6.6	> 10
COc1ccc(F)c(CN[C@@H]2C[C@H]2c2ccc(C(=O)NCc3ccccc3)cc2)c1 (relative stereo) [Example 40, N-benzyl-4-(trans-2-((2-fluoro-5-methoxybenzyl)amino)cyclopropyl)benzamide trifluoroacetate]	< 0.1	> 10	> 10
COc1cc(Cl)ccc1CN[C@@H]1C[C@H]1c1ccc(C(=O)NCc2ccccc2)cc1 (relative stereo) [Example 41, N-benzyl-4-(trans-2-((4-chloro-2-methoxybenzyl)amino)cyclopropyl)benzamide trifluoroacetate]	< 0.1	6.6	> 10
CN(C)c1ccccc1CN[C@@H]1C[C@H]1c1ccc(C(=O)NCc2ccccc2)cc1 (relative stereo) [Example 42, N-benzyl-4-(trans-2-((2-(dimethylamino)benzyl)amino)cyclopropyl)benzamide bis(trifluoroacetate)]	< 0.1	3.4	> 10
N#Cc1cccc(CN[C@@H]2C[C@H]2c2ccc(C(=O)NCc3ccccc3)cc2)c1 (relative stereo) [Example 43, N-benzyl-4-(trans-2-((3-cyanobenzyl)amino)cyclopropyl)benzamide trifluoroacetate]	< 0.1	1.5	> 10
